Data set [1] is described as follows: Body weight change after subcutaneous adjuvant administration. The data set is classed as in vivo, C57/BL6 mice. The protocol:
FIG. 10: Persistent local innate immune by particulate Poly-7/8a (PP-7/8a) activation is necessary and sufficient for inducing protective CD8 T cell responses. (a-c) CpG (20 μg), R848 (62.5 nmol) or PP-7/8a^Hi (62.5 nmol) were delivered subcutaneously into both hind footpads of C57/BL6 mice. (a) Supernatant of ex vivo cultured lymph node cell suspensions (n=4) were evaluated for IL-12p40 by ELISA at serial timepoints. (b) Serum (n=3-5) was assessed for IL-12p40 by ELISA at serial timepoints. (c) Percent body weight change (n=3) following subcutaneous administration of different vaccine adjuvants. (d) A model for understanding the relationship between biodistribution and local and systemic innate immune activation. (e, f) C57/BL6 mice (n=6) received a single subcutaneous footpad injection of 50 μg of OVA formulated with adjuvant at days 0 and 14. (e) At day 25, tetramer^+ CD8 T cell responses from whole blood were evaluated by flow cytometry. (f) Mice (n=6) were challenged intravenously at day 28 with LM-OVA and bacterial burden in the spleens was evaluated on day 31. (g, h) Immunogenicity experiments were repeated using SIV Gag p41 in place of OVA.

The test system of another data set is serum IL-12p40 and IP-10. The experiment in a line: Serum (systemic) cytokines after subcutaneous administration (ELISA). In kind it is in vivo, C57/BL6 mice. From the text: FIG. 9: Morphology of the carrier and TLR-7/8a agonist density, dose and potency independently influence the magnitude and spatiotemporal characteristics of innate immune activation. (a-g) To facilitate in vivo tracking, dye-labeled Poly-7/8a (PP-7/8a^Hi, PP-7/8a^Lo, PC-7/8a^Lo) (Note PP-7/8a^Hi=10 mol % and PP-7/8a^Lo=3 mol %) and small molecule TLR-7/8a normalized for TLR-7/8a dose (12.5 nmol), and controls, were delivered subcutaneously to the left footpad of mice. […] (c-e) Draining lymph nodes (n=3) were harvested at serial timepoints and evaluated by flow cytometry. […] Total CD11c^+ DC were evaluated for (d) adjuvant uptake (% Ax488^+), (e,f) relative adjuvant uptake per cell (Ax488 MFI; note that PP-7/8a^Lo and PC-7/8a^Lo are matched for TLR-7/8a density and dose), (g) magnitude and (h) activation (CD80 co-stimulatory molecule expression). (i) IL-12p40 was measured from the supernatant of ex vivo lymph node cultures. […] At day 28, tetramer+CD8 T cell responses were evaluated from whole blood. […] (n) Total IgG antibody titers and the ratio of IgG1/IgG2c antibody endpoint titers were evaluated from sera on day 28.
FIG. 10: Persistent local innate immune by particulate Poly-7/8a (PP-7/8a) activation is necessary and sufficient for inducing protective CD8 T cell responses. […] (b) Serum (n=3-5) was assessed for IL-12p40 by ELISA at serial timepoints. […]
Background: In an ELISA, binding on a coated surface is turned into a signal by an enzyme label.

The test system of the next data set is Th1 CD4 T cells. Put plainly: MML immunization, antigen-specific Th1 cytokine producing CD4 T cells in splenocytes. In kind it is in vivo, C57/BL6 mice. Conditions: 20 μg MML, days 0, 21 and 42. Here is the method:
FIG. 11: Particulate Poly-7/8a induce Th1 CD4 T cells that mediate protection against Leishmania major. C57/BL6 mice received subcutaneous immunizations of 20 μg of MML protein either alone, or formulated with an adjuvant, on days 0, 21 and 42. (a) Splenocytes were isolated on day 70 and stimulated in vitro with MML peptide pool. Antigen-specific cytokine producing CD4 T cells in the mixed splenocyte cultures were quantified by flow cytometry (n=5) for their capacity to produce Th1 characteristic cytokines (IFNγ, IL-2 and TNFα). (b) Mice (n=6) were challenged intradermally in both ears with L major at day 70. Ear lesion diameters were measured for 12 weeks.

The next data set deals with CD11c+ DC. Put plainly: DC recruitment and activation (CD80) in draining lymph nodes. The data set is classed as in vivo, mice. Conditions: TLR-7/8a dose 12.5 nmol, subcutaneous. From the text:
(§1) FIG. 9: Morphology of the carrier and TLR-7/8a agonist density, dose and potency independently influence the magnitude and spatiotemporal characteristics of innate immune activation. (a-g) To facilitate in vivo tracking, dye-labeled Poly-7/8a (PP-7/8a^Hi, PP-7/8a^Lo, PC-7/8a^Lo) (Note PP-7/8a^Hi=10 mol % and PP-7/8a^Lo=3 mol %) and small molecule TLR-7/8a normalized for TLR-7/8a dose (12.5 nmol), and controls, were delivered subcutaneously to the left footpad of mice. (a, b) mice (n=3) that received IR-dye labeled materials were imaged by dual modality X-ray and epifluorescence spectroscopy; (a) Representative images illustrating biodistribution over the first 2 days; (b) Kinetics of the different constructs in the popliteal lymph node. (c-e) Draining lymph nodes (n=3) were harvested at serial timepoints and evaluated by flow cytometry. […] Total CD11c^+ DC were evaluated for (d) adjuvant uptake (% Ax488^+), (e,f) relative adjuvant uptake per cell (Ax488 MFI; note that PP-7/8a^Lo and PC-7/8a^Lo are matched for TLR-7/8a density and dose), (g) magnitude and (h) activation (CD80 co-stimulatory molecule expression). (i) IL-12p40 was measured from the supernatant of ex vivo lymph node cultures. […] At day 28, tetramer+CD8 T cell responses were evaluated from whole blood. […] (n) Total IgG antibody titers and the ratio of IgG1/IgG2c antibody endpoint titers were evaluated from sera on day 28.

The nature of data set [2]: Biodistribution and kinetics of dye-labeled materials after subcutaneous administration (X-ray and epifluorescence imaging). In kind it is in vivo, mice.
Source text: as §1

In another data set the target is T1, hTLR7 (Homo sapiens, UniProt Q9NYK1).
T1 construct: expressed in transfected cells; host or cells: HEK293
T1 sequence (Q9NYK1 27-1049): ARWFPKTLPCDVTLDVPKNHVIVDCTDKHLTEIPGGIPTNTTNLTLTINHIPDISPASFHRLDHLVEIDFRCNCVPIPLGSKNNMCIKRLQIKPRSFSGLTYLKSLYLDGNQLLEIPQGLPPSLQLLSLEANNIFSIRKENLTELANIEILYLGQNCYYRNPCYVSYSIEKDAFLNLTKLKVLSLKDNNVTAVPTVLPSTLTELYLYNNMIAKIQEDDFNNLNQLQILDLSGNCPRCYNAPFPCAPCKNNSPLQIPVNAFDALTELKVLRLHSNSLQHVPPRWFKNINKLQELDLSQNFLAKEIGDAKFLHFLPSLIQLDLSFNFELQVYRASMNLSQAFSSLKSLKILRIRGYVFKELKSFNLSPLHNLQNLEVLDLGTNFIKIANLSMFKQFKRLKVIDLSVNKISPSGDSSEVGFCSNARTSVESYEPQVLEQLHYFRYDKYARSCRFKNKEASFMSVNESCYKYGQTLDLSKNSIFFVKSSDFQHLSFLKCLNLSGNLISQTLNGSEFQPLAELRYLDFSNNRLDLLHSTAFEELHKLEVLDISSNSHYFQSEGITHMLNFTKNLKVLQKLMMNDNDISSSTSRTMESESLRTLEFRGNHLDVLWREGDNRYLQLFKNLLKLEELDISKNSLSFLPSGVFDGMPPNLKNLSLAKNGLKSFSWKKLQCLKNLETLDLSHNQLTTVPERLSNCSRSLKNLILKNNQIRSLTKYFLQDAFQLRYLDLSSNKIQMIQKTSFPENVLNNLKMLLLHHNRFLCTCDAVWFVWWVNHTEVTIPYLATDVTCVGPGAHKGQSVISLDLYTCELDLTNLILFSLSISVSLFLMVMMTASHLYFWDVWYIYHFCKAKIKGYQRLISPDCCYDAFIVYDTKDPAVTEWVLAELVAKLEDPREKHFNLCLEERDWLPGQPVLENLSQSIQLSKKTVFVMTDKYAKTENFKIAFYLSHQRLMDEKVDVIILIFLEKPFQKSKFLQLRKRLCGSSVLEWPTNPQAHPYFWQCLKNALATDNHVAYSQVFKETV
The experiment in a line: HEK293 hTLR7 reporter cell assay (absorbance at 405 nm). The data set is classed as cell-based. Conditions: HEK293 hTLR7 reporter cells. Here is the method:
FIG. 6: Combinatorial synthesis was used to generate diverse arrays of Poly-7/8a. […] The potency of these two TLR-7/8a was evaluated in vitro using HEK293 hTLR7 reporter cells; absorbance at 405 nm is proportional to TLR7 binding. (b) A combinatorial library of Poly-7/8a was generated by attaching 2 unique TLR-7/8a (SM 7/8a or SM 20×7/8a) to reactive HPMA-based copolymers at different densities (˜2,4, 8 mol %) using either a short, alkane or PEG linker. By reacting 2 unique TLR-7/8a, at 3 different densities, using 3 different linkers, there are 18 unique products that can be generated, as illustrated (c). Note that this cartoon representation is for illustrative purposes; not all Poly-7/8a represented in this schematic were evaluated in this study, nor does this schematic represent all the materials described herein.

Data set [3] can be described thus: Particle formation and size in aqueous solution by (dynamic) light scattering. The data set is classed as physicochemical. The settings on record: 0.1 mg/mL PBS. From the text:
FIG. 7: In vivo screening of a combinatorial library of Poly-7/8a yields structure-activity insights. (a) Lymph node (n=4) IL-12p40 induced by a combinatorial library of Poly-7/8a. (b) Influence of TLR-7/8a density on lymph node (n=6) IL-12p40 and IP-10 levels (left y-axis, line graphs) and particle size assessed by dynamic light scattering (right y-axis, bar graph). (c) Cryo-electron microscopy of selected samples is shown for illustrative purposes. […] SM=small molecule; PC=polymer coil; PP=polymer particle.
FIG. 8: Increasing density of agonists on polymers results in an increased tendency of Poly-7/8a to form particles in aqueous solutions and is associated with enhanced local innate immune activity. (b) Negative control polymers were generated using aminopyridine (AP) to account for the contribution of the aromatic amine present on the imidazoquinoline based TLR-7/8a used in this study. AP was attached to polymers either through a PEG or amphiphilic (AMPH) spacer. […] 24 h after administration, supernatant of overnight lymph node cell suspensions were assessed for IFNα (d) or IFNγ (e) by ELISA. (f-g) Lymph nodes were isolated from wild type (WT), TLR-7 knockout or Caspase 1/11 (inflammasome) knockout mice 24 h after subcutaneously administering Poly-7/8a^10%; culture supernatants were evaluated for IP-10 and IL-12 by ELISA.

“Also recorded” adds a separate entry of the source.

As for `CCOCc1nc2c(N)nc3ccccc3c2n1CC(C)(C)O` [R848], the mouse body weight entry in data set [1] is given as “transient decreases in mouse body weight”. In the data set on serum IL-12p40 and IP-10 (CpG 20 μg, R848 62.5 nmol, PP-7/8a^Hi 62.5 nmol, subcutaneous), the “systemic (sera) cytokines” value is recorded as “only induced systemic (sera) cytokines; also recorded: high levels of transient systemic cytokine production”.

For `CCOCc1nc2c(N)nc3ccccc3c2n1CCCCN` [SM 7/8a, 1-(4-aminobutyl)-2-(ethoxymethyl)-1H-imidazo[4,5-c]quinolin-4-amine], the serum cytokines entry in the data set with serum IL-12p40 and IP-10 (TLR-7/8a dose 12.5 nmol, local (subcutaneous) administration) is “high levels of serum cytokines”. Besides, the “Th1-type CD4 cell responses” value with Th1 CD4 T cells is “equivalent to MML administered alone”. Further, in the data set on CD11c+ DC, the “DC recruitment, activation and cytokine production in draining lymph nodes” value is listed as “limited lymph node responses”. For the same compound, the “time after which undetectable” value in data set [2] is not above 1 days. Besides, the biodistribution / retention entry in data set [2] (normalized for TLR-7/8a dose) is recorded as “distributed systemically”.

Consider `CCCCc1nc2c(N)nc3ccccc3c2n1Cc1ccc(CN)cc1` [SM 20×7/8a, 1-(4-(aminomethyl)benzyl)-2-butyl-1H-imidazo[4,5-c]quinolin-4-amine], for which the “potency relative to SM 7/8a” value on hTLR7 was approximately 20 fold.

On to “p[(HPMA)-co-(Ma-β-Ala-PEG-Pam2Cys)] [Poly-PEG-Pam2Cys]”, for which, in data set [3], the z-average diameter is 2,744±384.8 nm.

The values are drawn from patent US20250090658A1, “POLYMER ADJUVANT” (Oxford University Innovation Limited, priority 2014, published 2025).
